Laboratory results published in patent US6603046B1, “Bis-aromatic a,β-unsaturated ketones” (Lica Pharmaceuticals A/S, priority 1992, dated 2003).
Values after ≈ are worked out from the molar mass of the structure shown. Read-outs that look alike come from different tables or passages of the source.

Key:
L. donovani = L. donovani infection in hamsters (Example 9); type: in vivo, syrian golden hamsters (Mesocricetus auratus); conditions: i.p. 10 mg per kg two times per day for 7 days
[1] = Absorption study in rats, oral, serum concentration (Example 20); type: in vivo
Method: The absorption pattern and pharmaco-kinetics of licochalcone A in rats given by oral route were determined compared with pharmacokinetics of licochalcone A in rats given intravenously.
Number of rats: 4 for each group […]
Route: Oral, adminitered once.
Sample: 2 ml of blood was drawn 4 times from each rat.
Serum or plasma was diluted with one part of acetonitrile, left for 15 min at 4° C., and centrifugated for 3 min at 10,000 g. An aliquot of the supernatant was chromatographed at 37° C. by HPLC over Spherisorb ODS-2 (5 μm, 120×4.5 mm, Phase Separation LTD, UK) using acetonitrile aqueous acetic acid, 2%, (1:1) as an eluent, flow rate 1.5 ml/min, and UV detection (370 nm and 254 nm).

[2] = Reaction with glutathione, HPLC (Example 26); type: physicochemical; conditions: acetonitrile-phosphate buffer (1:3), 7 days, ambient temperature
Method: Formation of glutathione conjugates of licochalcone A. A solution of 1.5 mg of licochalcone A and 100 mg of glutathione in acetonitrile-0.13 M aqueous potassium phosphate buffer solution pH 75 (1:3) was left for 7 days at ambient temperature protected from light.

[3] = tested on: L. major in human PBM-derived macrophages; experiment: L. major in human PBM-derived macrophages, microscopic counting (Example 7); type: cell-based, Leishmania major
Corynebacterium species = experiment: microbe, parasite or virus in culture; type: cell-based
human lymphocytes = experiment: Lymphocyte Proliferation Assay, 3H-thymidine incorporation (Example 13); conditions: Homo sapiens, Lymphocyte
Bacillus subtilis = experiment: MIC, macrodilution (Example 17); type: cell-based; conditions: 1 strain
L. major promastigotes = L. major promastigotes from 4-days cultures, 3H-thymidine uptake (Examples 5, 14); type: cell-based, Leishmania major; conditions: Leishmania major, Table 14.1, read-out: percentage inhibition of promastigotes (upper figure)
In short: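 Promastigotes harvested on day 4 of culture were exposed to compound, then pulsed with 100 μC 3H-thymidine for a further 18 h. Cells were collected on filter paper, washed, and incorporated radioactivity counted by scintillation.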

L. major = experiment: In vivo growth of L. major in BALB/c mice (Example 8); parameters: key to amastigotes findings on the impression smear, Spleen / amastigotes findings on the impression smear, Liver: −: no parasite amastigotes detected in 5 fields of microscopical vision; +: parasite amastigotes from 5 fields of microscopical vision < 100; ++: parasite amastigotes from 5 fields of microscopical vision = 100-500; +++: parasite amastigotes from 5 fields of microscopical vision = 500-1000; conditions: for parasitic load of the footpad, 3H-thymidine uptake (mean) / parasitic load of the liver, 3H-thymidine uptake (mean): 42 days
Method: Mice. BALB/c female mice aged eight weeks old were used throughout. Parasite. The maintenance, cultivation, and isolation of the promastigote-stage of the parasite L. major (WHO reference vaccine strain) have been described in detail in Example 4. […] The lesions that developed in the footpad were measured with a dial-calliper and expressed as footpad thickness increase (in mm). The footpad thickness of mice was measured before infection and every 3 days after 7 days of infection. From 7 days of infection, mice received licochalcone A injections i.p. or intralesionally once a day. After 42 days of licochalcone A injection, some of the mice were killed and the footpads, spleens and livers removed. The parasite loads in the footpads and livers were estimated by a modification of the method described by Liew et al. 1990. […] Incubation was carried out at 28° C. for 3 days and then pulsed with 1 μCi of ^3H-thymidine. Cultures were harvested 18 h later on filter paper by a cell harvester (Skatron, Lierbyen, Norway), extensively washed with distilled water and counted in a scintillation counter (Minaxi Ti-Carb 4000, United Technologies, Packard, USA). The results were expressed as cpm. The footpads, spleens and livers impression was also estimated. Drugs. One mg of licochalcone A was dissolved in 20 μl of 99% (v/v) ethanol, and then 980 μl of medium 199 was added an the resulting mixture was stored at −20° C. before use.

[4] = 3 days after infection, 0.5 μg/ml
[5] = 3 days after infection, 1 μg/ml
[6] = 6 days after infection, 0.5 μg/ml
[7] = 6 days after infection, 1 μg/ml
[8] = read-out: inhibition of lymphocytes (lower figure)
[9] = read-out: percentage inhibition of lymphocyte proliferation response ±SEM

SMILES: C=CC(C)(C)c1cc(/C=C/C(=O)c2ccc(O)cc2)c(OC)cc1O [Licochalcone A, licochalcone A]
- parasite load in the liver and the spleen (L. donovani): reduced to almost undetectable levels
- concentration in serum ([1]; 4 hours after oral administration, 1000 mg per kg as printed): 160 ng/mL
- concentration at 24 h ([1]; rat, serum, oral, 1000 mg per kg, after 24 hours, detection limit of the assay): < 50 ng/mL
- concentration at 4 h ([1]; rat, serum, po, 1000 mg per kg, 4 hours after oral administration, 1000 mg per kg as printed): 140 ng/mL
- reaction with glutathione [2]: decreased amounts of licochalcone A and appearance of two new peaks
- % of amast. [3, 4]: 91.6%
- % of infec. cells [3, 4]: 14.0%
- amast. per cell [3, 4]: 1.7
- proma. per cell [3, 4]: 0.1
- total amast. [3, 4]: 23.3 ×10^6
- total proma. [3, 4]: 2.0 ×10^6
- % of amast. [3, 5]: 88.2%
- % of infec. cells [3, 5]: 10.7%
- amast. per cell [3, 5]: 1.7
- proma. per cell [3, 5]: 0.2
- total amast. [3, 5]: 17.7 ×10^6
- total proma. [3, 5]: 2.0 ×10^6
- % of infec. cells ([3]; 3 days after infection, 5 μg/ml): 0%
- % of infec. cells ([3]; 3 days after infection, 10 μg/ml): 0%
- % of amast. [3, 6]: 100%
- % of infec. cells [3, 6]: 8.0%
- amast. per cell [3, 6]: 1.7
- proma. per cell [3, 6]: 0
- total amast. [3, 6]: 14 ×10^6
- total proma. [3, 6]: 0 ×10^6
- % of amast. [3, 7]: 100%
- % of infec. cells [3, 7]: 7.3%
- amast. per cell [3, 7]: 2.2
- proma. per cell [3, 7]: 0
- total amast. [3, 7]: 16 ×10^6
- total proma. [3, 7]: 0 ×10^6
- % of infec. cells ([3]; 6 days after infection, 5 μg/ml): 0%
- % of infec. cells ([3]; 6 days after infection, 10 μg/ml): 0%
- MIC (Corynebacterium species): 0.3 to 4 µg/mL (≈ 0.887 to 11.8 µM)
- MIC (Corynebacterium species; read-out: MIC of one very sensitive corynebacterium species): 0.3 µg/mL
- inhibition at 0.5 µg/mL (human lymphocytes; [8]): 4.7%
- inhibition at 1 µg/mL (human lymphocytes; [8]): 7.7%
- inhibition at 5 µg/mL (human lymphocytes; [8]): 20.8%
- inhibition at 10 µg/mL (human lymphocytes; [8]): 39.7%
- inhibition at 1 µg/mL (human lymphocytes; [9]): 4.7 ± 5.6%
- inhibition at 2 µg/mL (human lymphocytes; [9]): 7.8 ± 5.7%
- inhibition at 5 µg/mL (human lymphocytes; [9]): 20.8 ± 4.8%
- inhibition at 10 µg/mL (human lymphocytes; [9]): 39.7 ± 5.4%
- inhibition at 20 µg/mL (human lymphocytes; [9]): 65.3 ± 7%
- MIC (Bacillus subtilis): 4 µg/mL (≈ 11.8 µM)
- inhibition at 0.5 µg/mL (L. major promastigotes; 0.5 μg/ml): 12%
- inhibition at 1 µg/mL (L. major promastigotes; 1 μg/ml): 25%
- inhibition at 5 µg/mL (L. major promastigotes; 5 μg/ml): 64%
- inhibition at 10 µg/mL (L. major promastigotes; 10 μg/ml): 92%
- amastigotes findings on the impression smear, Footpad (L. major; 20 μg intralesional): + (parasite amastigotes from 5 fields of microscopical vision < 100)
- amastigotes findings on the impression smear, Liver (L. major; 20 μg intralesional): + (parasite amastigotes from 5 fields of microscopical vision < 100)
- amastigotes findings on the impression smear, Spleen (L. major; 20 μg intralesional): + (parasite amastigotes from 5 fields of microscopical vision < 100)
- parasitic load of the footpad, 3H-thymidine uptake (mean) (L. major; 20 μg intralesional once a day): 243.5 ×10^3 cpm
- parasitic load of the liver, 3H-thymidine uptake (mean) (L. major; 20 μg intralesional once a day): 10.8 ×10^3 cpm
- amastigotes findings on the impression smear, Footpad (L. major; 50 μg i.p.): + (parasite amastigotes from 5 fields of microscopical vision < 100)
- amastigotes findings on the impression smear, Liver (L. major; 50 μg i.p.): −
- amastigotes findings on the impression smear, Spleen (L. major; 50 μg i.p.): −
- parasitic load of the footpad, 3H-thymidine uptake (mean) (L. major; 50 μg i.p. once a day): 58.0 ×10^3 cpm
- parasitic load of the liver, 3H-thymidine uptake (mean) (L. major; 50 μg i.p. once a day): 11.7 ×10^3 cpm
- amastigotes findings on the impression smear, Footpad (L. major; 50 μg intralesional): + (parasite amastigotes from 5 fields of microscopical vision < 100)
- amastigotes findings on the impression smear, Liver (L. major; 50 μg intralesional): + (parasite amastigotes from 5 fields of microscopical vision < 100)
- amastigotes findings on the impression smear, Spleen (L. major; 50 μg intralesional): + (parasite amastigotes from 5 fields of microscopical vision < 100)
- parasitic load of the footpad, 3H-thymidine uptake (mean) (L. major; 50 μg intralesional once a day): 282.6 ×10^3 cpm
- parasitic load of the liver, 3H-thymidine uptake (mean) (L. major; 50 μg intralesional once a day): 20.8 ×10^3 cpm
- amastigotes findings on the impression smear, Footpad (L. major; 100 μg i.p.): + (parasite amastigotes from 5 fields of microscopical vision < 100)
- amastigotes findings on the impression smear, Liver (L. major; 100 μg i.p.): −
- amastigotes findings on the impression smear, Spleen (L. major; 100 μg i.p.): −
- parasitic load of the footpad, 3H-thymidine uptake (mean) (L. major; 100 μg i.p. once a day): 89.0 ×10^3 cpm
- parasitic load of the liver, 3H-thymidine uptake (mean) (L. major; 100 μg i.p. once a day): 12.8 ×10^3 cpm
